{
  "source": "paper PMC2361176",
  "about": "“Inhibitory effects of retinoic acid metabolism blocking agents (RAMBAs) on the growth of human prostate cancer cells and LNCaP prostate tumour xenografts in SCID mice” (British Journal of Cancer, 2006)",
  "key": {"[1]": {"tested_on": "LNCaP cells", "test": "WST-1 cell viability / LNCaP cell growth inhibition assay", "type": "cell-based", "settings": "Homo sapiens, 144 h, 6 days, read-out: Cell growth inhibition, agents alone, IC50", "experimental": "To measure cell viability, 24-well plates were coated with a 0.05% poly-L-lysine solution for 30 min. The wells were then washed with sterilised dH2O. LNCaP cells (1 × 10^4) were seeded in the plates and maintained in RPMI 1640 medium (Gibco-Invitrogen, Carlsbad, CA, USA). The cells were allowed to attach for 36 h. After attachment, fresh media was added and the cells were treated with a concentration range of either ATRA or each of the RAMBAs for 6 days. The media was changed every 3 days. On the day the assay was performed, the media was removed and 1 ml of a stock solution of WST-1 (4-[3-(4-iodophenyl)-2-(4-nitrophenyl)-2H-5-tetrazolio]-1,3-benzene disulfonate) cell proliferation reagent (Boehringer Mannheim, Indianapolis, IN, USA), diluted 1 : 10 in RPMI 1640 medium (without FBS), was added to each well. The plates were incubated at 37°C for 3 h. The media was then removed and 500 μl of DMSO was added and agitated vigorously for 5 min. The slightly red tetrazolium salt WST-1 is reduced to a dark red, water-soluble formazan product by mitochondrial dehydrogenase from living cells, which gives absorbance at a wavelength of 450 nm."}, "[2]": {"tested_on": "cytokeratin 8/18", "test": "Differentiation assay (Western-blot analysis of cytokeratins 8/18)", "type": "cell-based, human", "settings": "LNCaP cells, 6 days; for cytokeratin 8/18 expression, fold over control: 1 μM agent alone; for cytokeratin 8/18 expression, fold over control / cytokeratin 8/18 expression, fold over control, combination with ATRA: control 1±0.07; for expression of cytokeratin 8/18 (concentration dependence): various concentrations; for cytokeratin 8/18 expression, fold over control, combination with ATRA: 1 μM RAMBA and 1 μM ATRA", "experimental": "LNCaP cells were scraped with 1.5 ml of PBS. The cells were collected by centrifugation, resuspended in ice-cold cell lysis buffer (0.1 M Tris-HCl, 0.5% Triton X-100, and protease inhibitor cocktail (Boehringer, Indianapolis, IN, USA)), and sonicated. The homogenates were incubated on ice for 30 min, subjected to centrifugation at 13 000 × g for 30 min, and the supernatants were separated and stored at −80°C until use. Protein concentrations were determined by the Bradford method using a Bio-Rad kit (Hercules, CA, USA). A measure of 50 μg of cell lysate was subjected to 10% sodium dodecyl sulfate-polyacrylamide gel electrophoresis (SDS–PAGE) using the Mini-PROTEAN3 electrophoresis module assembly (Bio-Rad, Hercules, CA, USA) at 60 V at room temperature. The separated lysates on 10% SDS–PAGE gel were transferred onto Hybond ECL nitrocellulose membrane (Amersham, Arlington Heights, IL, USA) overnight at 20 V at 4°C. Western-blot analysis was performed on the nitrocellulose membrane. The membrane was blocked for 1 h in 10% nonfat dried milk and PBS containing 0.5% Tween 20 (PBS-T) at room temperature. Following washing in PBS-T, the membrane was incubated with mouse monoclonal IgG antibody to cytokeratin 8/18 or β-actin (Santa Cruz Biotechnology, Santa Cruz, CA, USA and Oncogene Research Products, Boston, MA, USA, respectively) dissolved in 10% nonfat dried milk (1 : 5000 or 1 : 10 000), respectively) for l h at room temperature. Following washing, the membrane was incubated with horseradish peroxidase-linked anti-mouse IgG antibody (Amersham, Arlington Heights, IL, USA and Oncogene Research Products, Boston, MA, USA, respectively) dissolved in 10% nonfat dried milk (1 : 1000) for 1 h at room temperature. The membrane was incubated in 4 ml ECL Western Blotting Analysis System (Amersham, Arlington Heights, IL, USA) for 1 min at room temperature. The membrane was resolved on chemiluminescence film (Amersham Hyperfilm High Performance chemiluminescence film, Arlington Heights, IL, USA) and the film was developed using an X-ray developer (M35A X-OMAT Processor, Eastman Kodak Company, Rochester, NY, USA). The intensity of the bands on film was analysed using ImageQuant 5.0 software (Amersham, Arlington Heights, IL, USA). The band intensity corresponds to the level of protein expression of cytokeratin 8/18, which is shown to be expressed in differentiated cells of epithelial origin ([Peehl et al, 1993]; [Hsieh et al, 1995])."}, "[3]": {"tested_on": "LNCaP cells", "test": "TUNEL assay of apoptosis in LNCaP cells", "type": "cell-based, human", "settings": "6 days; for induction of apoptosis (TUNEL): 1 or 5 μM; for percentage of apoptotic cells (TUNEL): 5 μM", "experimental": "A total of 4000 LNCaP cells were plated on each well of an eight-well Lab-Tek II® chamber slide (Nalge Nunc International, Naperville, IL, USA). The LNCaP cells were then treated with either 1 or 5 μM of ATRA or RAMBA for 6 days. Cells were then fixed in 4% paraformaldehyde solution in dH2O. The cells were then processed and stained with FITC (fluorescein isothiocyanate) according to kit instructions (In situ cell death detection kit, AP, Roche Diagnostics Corp., Indianapolis, IN, USA). The FITC-stained cells are then mounted with VectorShield® mounting medium for fluorescence with DAPI (4′,6-diamidine-2′-phenylindole dihydrochloride) nuclear stain (Vector Laboratories, Inc., Burlingame, CA, USA) and covered with ApopTag® plastic coverslips (Intergen Company, Purchase, NY, USA). The slides were then examined under fluorescence microscopy (Eclipse E400, Nikon, Inc., Melville, NY, USA) and counted using SPOT Advance® 3.5 software (Diagnostic Instruments, Inc., Sterling Heights, MI, USA)."}, "[4]": {"tested_on": "Bcl-2", "test": "Western-blot analysis of Bcl-2 in LNCaP cells", "type": "cell-based, human", "settings": "data not shown", "experimental": "The Western-blot protocol described for cytokeratins 8/18 was followed with some exceptions. Cell lysates (50 μg) were separated on a 15% SDS–PAGE gel. All washing was performed using TBS containing 1% Tween 20 (TBS-T). Blocking was performed using 5% milk in TBS-T. Incubations were performed using rabbit monoclonal IgG antibody to Bad and Bcl-2 (1 : 1000), as well as horseradish peroxidase-linked anti-rabbit IgG antibodies (1 : 2000) (Cell Signaling Technology, Beverly, MA, USA)."}},
  "data": [
    {"smiles": "CC1=C(/C=C/C(C)=C/C=C/C(C)=C/C(=O)O)C(C)(C)CCC1", "note": "[ATRA, all-trans-retinoic acid, reference compound]", "values": [
      {"measurement": "IC50", "setting": "[1]", "value": 4.3, "unit": "µM"},
      {"measurement": "cytokeratin 8/18 expression, fold over control", "setting": "[2]", "value": 1.38, "unit": "fold"},
      {"measurement": "cytokeratin 8/18 expression compared to control", "setting": "[2]; 5 and 10 μM, P<0.05, data not shown", "value": "significant increase"},
      {"measurement": "expression of cytokeratin 8/18 (concentration dependence)", "setting": "[2]; data not shown", "value": "concentration-dependent increase"},
      {"measurement": "induction of apoptosis (TUNEL)", "setting": "[3]", "value": "concentration-dependent induction of apoptosis"},
      {"measurement": "expression of Bcl-2", "setting": "[4]", "value": "concentration-dependent decrease"}
    ]},
    {"smiles": "CC1=C(/C=C/C(C)=C/C=C/C(C)=C/C(=O)O)C(C)(C)CCC1n1ccnc1", "note": "(centres unmarked) [VN/14-1]", "values": [
      {"measurement": "IC50", "setting": "[1]", "value": 10, "unit": "µM"},
      {"measurement": "cytokeratin 8/18 expression, fold over control, combination with ATRA", "setting": "[2]", "value": 1.59, "unit": "fold"},
      {"measurement": "cytokeratin 8/18 expression, fold over control", "setting": "[2]", "value": 1.18, "unit": "fold"},
      {"measurement": "expression of cytokeratin 8/18 (concentration dependence)", "setting": "[2]; data not shown", "value": "concentration-dependent increase"},
      {"measurement": "percentage of apoptotic cells (TUNEL)", "setting": "[3]", "value": 17.03, "unit": "%"},
      {"measurement": "induction of apoptosis (TUNEL)", "setting": "[3]", "value": "concentration-dependent induction of apoptosis"},
      {"measurement": "expression of Bcl-2", "setting": "[4]", "value": "concentration-dependent decrease"}
    ]},
    {"smiles": "CC1=C(/C=C/C(C)=C/C=C/C(C)=C/C(=O)n2ccnc2)C(C)(C)CCC1n1ccnc1", "note": "(centres unmarked) [VN/50-1]", "values": [
      {"measurement": "IC50", "setting": "[1]", "value": 6, "unit": "µM"},
      {"measurement": "cytokeratin 8/18 expression, fold over control, combination with ATRA", "setting": "[2]", "value": 1.51, "unit": "fold"},
      {"measurement": "cytokeratin 8/18 expression, fold over control", "setting": "[2]", "value": 1.23, "unit": "fold"},
      {"measurement": "expression of cytokeratin 8/18 (concentration dependence)", "setting": "[2]; data not shown", "value": "concentration-dependent increase"},
      {"measurement": "percentage of apoptotic cells (TUNEL)", "setting": "[3]", "value": 17.03, "unit": "%"},
      {"measurement": "induction of apoptosis (TUNEL)", "setting": "[3]", "value": "concentration-dependent induction of apoptosis"},
      {"measurement": "expression of Bcl-2", "setting": "[4]", "value": "did not effect"}
    ]},
    {"smiles": "CC1=C(/C=C/C(C)=C/C=C/C(C)=C/C(=O)Nc2ccc(O)cc2)C(C)(C)CCC1n1ccnc1", "note": "(centres unmarked) [VN/66-1]", "values": [
      {"measurement": "IC50", "setting": "[1]", "value": 4.5, "unit": "µM"},
      {"measurement": "cytokeratin 8/18 expression, fold over control, combination with ATRA", "setting": "[2]", "value": 1.48, "unit": "fold"},
      {"measurement": "cytokeratin 8/18 expression, fold over control", "setting": "[2]", "value": 1.28, "unit": "fold"},
      {"measurement": "expression of cytokeratin 8/18 (concentration dependence)", "setting": "[2]; data not shown", "value": "concentration-dependent increase"},
      {"measurement": "induction of apoptosis (TUNEL)", "setting": "[3]", "value": "concentration-dependent induction of apoptosis"},
      {"measurement": "expression of Bcl-2", "setting": "[4]", "value": "did not effect"}
    ]},
    {"smiles": "CC1=C(/C=C/C(C)=C/C=C/C(C)=C\\C(=O)Nc2ccc(O)cc2)C(C)(C)CCC1n1ccnc1", "note": "(centres unmarked) [VN/69-1]", "values": [
      {"measurement": "IC50", "setting": "[1]", "value": 5, "unit": "µM"},
      {"measurement": "cytokeratin 8/18 expression, fold over control, combination with ATRA", "setting": "[2]", "value": 1.32, "unit": "fold"},
      {"measurement": "cytokeratin 8/18 expression, fold over control", "setting": "[2]", "value": 1.19, "unit": "fold"},
      {"measurement": "expression of cytokeratin 8/18 (concentration dependence)", "setting": "[2]; data not shown", "value": "concentration-dependent increase"},
      {"measurement": "induction of apoptosis (TUNEL)", "setting": "[3]", "value": "concentration-dependent induction of apoptosis"},
      {"measurement": "expression of Bcl-2", "setting": "[4]", "value": "did not effect"}
    ]}
  ]
}
